PubChem BioAssay AID310 (DTP/NCI, 2004)
Where “and” joins values, the source holds several entries; their conditions need not be identical. Identical values can stand only once. Records with an inconclusive call do not appear. Where a SMILES comes first, the peptide text is derived from it. [ ]: non-standard residue; d: D form. Ac5c = NC1(C(=O)O)CCCC1

Test system: C3AKF1 mice, osteogenic sarcoma HE10734 s.c., tumor weight T/C
Assay: NCI In Vivo Anticancer Drug Screen. Data for tumor model Osteogenic Sarcoma HE 10734 (subcutaneous) in C3AKF1 (CHKRF1) mice
Settings: endpoint: mean tumor weight, schedule: Q01DX010 (ip), higher = larger tumour
Procedure: The antitumor activity of compounds was measured in mice bearing transplantable tumors. Survival or tumor size were measured and the results are expressed as the measurement made in the treated group (T) divided by the measurement made in the vehicle treated control group (C). The tumor model used in this assay is Osteogenic Sarcoma HE 10734 (subcutaneous) in C3AKF1 (CHKRF1) mice

[1] = dose: 12.0 mg/kg/injection, vehicle: saline
[2] = dose: 25.0 mg/kg/injection, vehicle: saline
[3] = dose: 50.0 mg/kg/injection, vehicle: saline
[4] = dose: 100.0 mg/kg/injection, vehicle: saline
[5] = dose: 125.0 mg/kg/injection, vehicle: saline
[6] = dose: 250.0 mg/kg/injection, vehicle: saline
[7] = dose: 500.0 mg/kg/injection, vehicle: saline
[8] = dose: 1000.0 mg/kg/injection, vehicle: saline
[9] = dose: 150.0 mg/kg/injection, vehicle: saline
[10] = dose: 50.0 mg/kg/injection, vehicle: carboxymethylcellulose (CMC)
[11] = dose: 12.5 mg/kg/injection, vehicle: carboxymethylcellulose (CMC)
[12] = dose: 200.0 mg/kg/injection, vehicle: saline
[13] = dose: 75.0 mg/kg/injection, vehicle: saline
[14] = dose: 300.0 mg/kg/injection, vehicle: saline
[15] = dose: 30.0 mg/kg/injection, vehicle: carboxymethylcellulose (CMC)

Q: For `CN(C)[C@@H]1C(=O)C(C(=O)NCN(CCCl)CCCl)=C(O)[C@@]2(O)C(=O)C3=C(O)c4c(O)cccc4[C@@](C)(O)[C@H]3C[C@@H]12`, which T/C (dose: 8.9 mg/kg/injection, vehicle: saline) is on record?
A: The T/C was 105 % of control.

Q: And the T/C (dose: 13.0 mg/kg/injection, vehicle: saline)?
A: The T/C was 84 % of control.

Q: What about the T/C (dose: 20.0 mg/kg/injection, vehicle: saline) of the same compound?
A: The T/C was 94 % of control.

Q: And the T/C (dose: 30.0 mg/kg/injection, vehicle: saline)?
A: The T/C was 52 % of control and 69 % of control.

Q: What about the T/C (dose: 44.0 mg/kg/injection, vehicle: saline) of the same compound?
A: The T/C was 53 % of control.

Q: How did the T/C [1] turn out when `CCn1cnc2c(SC)nc(N)nc21` was run?
A: Its T/C is 76 % of control.

Q: What about the T/C [2] of the same compound?
A: Its T/C is 93 % of control.

Q: What about the T/C [3] of the same compound?
A: Its T/C is 95 % of control.

Q: What about the T/C [4] of the same compound?
A: The T/C was 108 % of control.

Q: What about the T/C (dose: 340.0 mg/kg/injection, vehicle: saline) of the same compound?
A: The T/C was 57 % of control.

Q: With `CCOC(=O)NC` as the compound, how does the T/C [5] read?
A: The T/C was 104 % of control.

Q: And the T/C [6]?
A: Its T/C is 67 % of control.

Q: What about the T/C [7] of the same compound?
A: The T/C was 59 % of control.

Q: And the T/C [8]?
A: Its T/C is 27 % of control.

Q: Which results are given for `NCC(=O)NC1(C(=O)O)CCCC1` (H-Gly-[Ac5c]-OH)?
A: T/C (dose: 66.0 mg/kg/injection, vehicle: saline): 79 % of control; T/C [4]: 58 % of control; T/C [9]: 35 % of control; T/C (dose: 225.0 mg/kg/injection, vehicle: saline): 20 % of control and 27 % of control

Q: With `CN(C)c1ccc(/C=C\c2ccnc3ccccc23)cc1` as the compound, how does the T/C (dose: 2.5 mg/kg/injection, vehicle: carboxymethylcellulose (CMC)) read?
A: Its T/C is 50 % of control.

Q: And the T/C (dose: 14.0 mg/kg/injection, vehicle: carboxymethylcellulose (CMC))?
A: The T/C was 68 % of control.

Q: What about the T/C (dose: 22.0 mg/kg/injection, vehicle: carboxymethylcellulose (CMC)) of the same compound?
A: The T/C was 44 % of control.

Q: And the T/C [10]?
A: The T/C was 48 % of control.

Q: And the T/C (dose: 75.0 mg/kg/injection, vehicle: carboxymethylcellulose (CMC))?
A: Its T/C is 27 % of control.

Q: And the T/C (dose: 100.0 mg/kg/injection, vehicle: carboxymethylcellulose (CMC))?
A: Its T/C is 67 % of control.

Q: Which results are given for `O=C(c1ccc(C(=O)N2CC2)cc1)N1CC1`?
A: T/C (dose: 3.13 mg/kg/injection, vehicle: carboxymethylcellulose (CMC)): 55 % of control; T/C (dose: 6.25 mg/kg/injection, vehicle: carboxymethylcellulose (CMC)): 106 % of control; T/C [11]: 118 % of control

Q: What does the source list for `CC(C)Sc1nc(N)nc2nc[nH]c12`?
A: T/C [2]: 71 % of control; T/C [3]: 83 % of control; T/C [4]: 76 % of control; T/C [12]: 23 % of control

Q: How did the T/C [13] turn out when `O=c1[nH]cnc2n[nH]nc12` was run?
A: Its T/C is 80 % of control.

Q: And the T/C [9]?
A: The T/C was 103 % of control.

Q: What about the T/C [14] of the same compound?
A: The T/C was 87 % of control.

Q: And the T/C (dose: 600.0 mg/kg/injection, vehicle: saline)?
A: The T/C was 99 % of control.

Q: For `S=c1c2[nH]cnc2ncn1CCSC1=NC=NC2=NC=NC21` (stereo unspecified), which T/C [3] is on record?
A: Its T/C is 81 % of control.

Q: And the T/C [12]?
A: Its T/C is 35 % of control.

Q: What about the T/C (dose: 400.0 mg/kg/injection, vehicle: saline) of the same compound?
A: Its T/C is 29 % of control.

Q: How did the T/C [11] turn out when `O=C(O)CC(O)(CC(=O)O)C(=O)O.[Ga]` was run?
A: Its T/C is 84 % of control.

Q: What about the T/C (dose: 25.0 mg/kg/injection, vehicle: carboxymethylcellulose (CMC)) of the same compound?
A: The T/C was 84 % of control.

Q: And the T/C [10]?
A: The T/C was 39 % of control.

Q: For `CC(=O)Nc1ccc(NC(=O)c2ccc([As](O)O)cc2)cc1`, which T/C (dose: 15.0 mg/kg/injection, vehicle: carboxymethylcellulose (CMC)) is on record?
A: The T/C was 89 % of control.

Q: What about the T/C [15] of the same compound?
A: Its T/C is 111 % of control.

Q: What about the T/C (dose: 60.0 mg/kg/injection, vehicle: carboxymethylcellulose (CMC)) of the same compound?
A: The T/C was 85 % of control.

Q: And the T/C (dose: 120.0 mg/kg/injection, vehicle: carboxymethylcellulose (CMC))?
A: Its T/C is 61 % of control and 62 % of control.

Q: And the T/C (dose: 240.0 mg/kg/injection, vehicle: carboxymethylcellulose (CMC))?
A: The T/C was 32 % of control.

Q: How did the T/C (dose: 0.75 mg/kg/injection, vehicle: saline) turn out when `CCC[CH2][Sn]([CH2]CCC)([CH2]CCC)[O]C(=O)CC[S][Sn]([CH2]CCC)([CH2]CCC)[CH2]CCC` was run?
A: Its T/C is 124 % of control.

Q: And the T/C (dose: 1.5 mg/kg/injection, vehicle: saline)?
A: Its T/C is 90 % of control.

Q: And the T/C (dose: 6.0 mg/kg/injection, vehicle: saline)?
A: Its T/C is 72 % of control.

Q: What about the T/C [1] of the same compound?
A: Its T/C is 89 % of control.

Q: What about the T/C (dose: 24.0 mg/kg/injection, vehicle: saline) of the same compound?
A: The T/C was 30 % of control.

Q: With `Cc1ccc(N=NN(C)C)cc1` as the compound, how does the T/C [2] read?
A: The T/C was 83 % of control.

Q: And the T/C [3]?
A: Its T/C is 46 % of control.

Q: And the T/C [4]?
A: The T/C was 46 % of control.

Q: What does the source list for `CC1(C)CC(C)(c2ccccc2)c2ccccc21` (stereo unspecified)?
A: T/C [13]: 92 % of control; T/C [9]: 70 % of control; T/C [14]: 52 % of control

Q: `ClCCn1cnc2c(SCc3ccccc3Cl)ncnc21` was tested. Which T/C [3] did it give?
A: The T/C was 72 % of control.

Q: What about the T/C [4] of the same compound?
A: The T/C was 56 % of control.

Q: What about the T/C [12] of the same compound?
A: The T/C was 35 % of control.

Q: `O=P(N1CC1)(N1CC1)N1CC1` was tested. Which T/C (dose: 0.5 mg/kg/injection, vehicle: carboxymethylcellulose (CMC)) did it give?
A: Its T/C is 104 % of control.

Q: What about the T/C (dose: 1.0 mg/kg/injection, vehicle: carboxymethylcellulose (CMC)) of the same compound?
A: The T/C was 76 % of control.

Q: What about the T/C (dose: 2.0 mg/kg/injection, vehicle: carboxymethylcellulose (CMC)) of the same compound?
A: The T/C was 67 % of control.

Q: What about the T/C (dose: 4.0 mg/kg/injection, vehicle: carboxymethylcellulose (CMC)) of the same compound?
A: The T/C was 41 % of control.

Q: Which T/C [15] does the source give for `NC(N)=N/N=C/C=N/N=C(N)N` here?
A: The T/C was 81 % of control.

Q: `O=[N+]([O-])c1ccccc1CSc1ncnc2nc[nH]c12` was tested. Which T/C (dose: 62.0 mg/kg/injection, vehicle: saline) did it give?
A: Its T/C is 106 % of control.

Q: And the T/C [5]?
A: Its T/C is 81 % of control.

Q: What about the T/C [6] of the same compound?
A: Its T/C is 28 % of control.

Q: Which T/C (dose: 37.0 mg/kg/injection, vehicle: saline) does the source give for `Clc1ncnc2c1ncn2C1CCCO1` (stereo unspecified) here?
A: The T/C was 77 % of control and 80 % of control.

Q: And the T/C (dose: 450.0 mg/kg/injection, vehicle: saline)?
A: Its T/C is 69 % of control.

Q: `O=C(Nc1ccc(C2=NCCN2)cc1)c1ccc(C(=O)Nc2ccc(C3=NCCN3)cc2)c(NC(=O)c2ccc(C(=O)Nc3cc(C(=O)Nc4ccc(C5=NCCN5)cc4)ccc3C(=O)Nc3ccc(C4=NCCN4)cc3)cc2)c1` was tested. Which T/C (dose: 28.0 mg/kg/injection, vehicle: saline) did it give?
A: Its T/C is 111 % of control.

Q: What about the T/C (dose: 45.0 mg/kg/injection, vehicle: saline) of the same compound?
A: Its T/C is 104 % of control.

Q: And the T/C (dose: 65.0 mg/kg/injection, vehicle: saline)?
A: The T/C was 118 % of control.

Q: And the T/C (dose: 95.0 mg/kg/injection, vehicle: saline)?
A: Its T/C is 98 % of control and 107 % of control.

Q: And the T/C (dose: 140.0 mg/kg/injection, vehicle: saline)?
A: Its T/C is 93 % of control.

Q: And the T/C (dose: 210.0 mg/kg/injection, vehicle: saline)?
A: Its T/C is 89 % of control.

Q: What about the T/C (dose: 315.0 mg/kg/injection, vehicle: saline) of the same compound?
A: Its T/C is 110 % of control.

Q: What does the source list for `Nc1nc(SCc2ccc([N+](=O)[O-])cc2)c2[nH]cnc2n1`?
A: T/C [5]: 86 % of control; T/C [6]: 89 % of control; T/C [7]: 58 % of control; T/C [8]: 59 % of control

Q: For `Nc1ccc2ccccc2c1N=Nc1ccccc1`, which T/C (dose: 62.5 mg/kg/injection, vehicle: carboxymethylcellulose (CMC)) is on record?
A: Its T/C is 101 % of control.

Q: What about the T/C (dose: 125.0 mg/kg/injection, vehicle: carboxymethylcellulose (CMC)) of the same compound?
A: The T/C was 100 % of control.

Q: And the T/C (dose: 250.0 mg/kg/injection, vehicle: carboxymethylcellulose (CMC))?
A: Its T/C is 65 % of control.

Q: And the T/C (dose: 500.0 mg/kg/injection, vehicle: carboxymethylcellulose (CMC))?
A: The T/C was 41 % of control.

Q: With `Cn1cnc([N+](=O)[O-])c1Sc1nc(N)nc2c1ncn2C1OC(CO)C(O)C1O` (stereo unspecified) as the compound, how does the T/C (dose: 7.5 mg/kg/injection, vehicle: carboxymethylcellulose (CMC)) read?
A: The T/C was 96 % of control.
